Reference: US20260250290A1 (BRISTOL-MYERS SQUIBB COMPANY, priority 2023, published 2026)

Each molecule was assayed against T1, SGK1 (Homo sapiens, UniProt O00141) (assay: SGK1 inhibition Assay B (Echo mass spectrometry of phosphorylated peptide product)). Conditions: 60 min at room temperature.
T1 sequence (O00141 1-431): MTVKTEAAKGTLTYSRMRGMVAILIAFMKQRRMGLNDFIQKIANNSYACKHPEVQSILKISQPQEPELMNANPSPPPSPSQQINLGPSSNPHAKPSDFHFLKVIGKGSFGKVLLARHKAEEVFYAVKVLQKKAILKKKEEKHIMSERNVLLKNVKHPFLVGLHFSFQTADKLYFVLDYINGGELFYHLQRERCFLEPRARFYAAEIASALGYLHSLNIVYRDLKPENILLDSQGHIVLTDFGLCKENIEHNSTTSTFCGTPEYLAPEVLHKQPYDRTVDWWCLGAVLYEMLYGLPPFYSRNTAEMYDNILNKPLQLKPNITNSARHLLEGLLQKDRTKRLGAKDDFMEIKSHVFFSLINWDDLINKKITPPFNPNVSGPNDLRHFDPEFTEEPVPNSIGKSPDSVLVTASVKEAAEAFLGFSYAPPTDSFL
Assay type: biochemical
Protocol: 20 μl of 2 nM SGK1 were added in 20 mM Hepes+10 mM MgCl2+0015% Brij-35+4 mM DTT+0.05 mg/ml BSA and the reaction incubated for 60 min at room temperature. The enzymatic reaction was quenched by addition 10 μl of 1% Formic Acid+150 nM Internal Standard: FITC-(Ahx)KKRNRR(pS)VA^—OH (final concentration). The plates are spun down at 3700 RPM for 10 minutes to remove all precipitate. Samples were loaded on to the Sciex Echo Mass Spec attached to a Sciex 6500 equipped with ESI and was used to analyze the phosphorylated peptide product. MRM transition of product and internal standard were monitored at m/z 755 to 937.5 and m/z 757.7 to 941.3 respectively. Peak area of analyte was normalized with internal standard.
Dose response curves were generated to determine the concentration required for inhibiting 50% of the enzyme activity. Compounds were dissolved at 10 mM in dimethylsulfoxide (DMSO) and evaluated at eleven concentrations.
With `[2H]C([2H])([2H])N([C@H]1CC[C@@H](Oc2nc(C)sc2C(=O)N[C@@H]2CCCN(c3cc(C4=C(C)C(=O)OC4)n4ncnc(N)c34)C2)CC1)C([2H])([2H])[2H]` [Example 1013, N—((R)-1-(4-amino-7-(4-methyl-5-oxo-2,5-dihydrofuran-3-yl)pyrrolo[2,1-f][1,2,4]triazin-5-yl)piperidin-3-yl)-4-(((1S,4S)-4-(bis(methyl-d3)amino)cyclohexyl)oxy)-2-methylthiazole-5-carboxamide] the IC50 was 1.7 nM. For `[2H]C([2H])([2H])c1nc(O[C@H]2CC[C@@H](N(C)C)CC2)c(C(=O)N[C@@H]2CCCN(c3cc(C4=C(C)C(=O)OC4)n4ncnc(N)c34)C2)s1` [Example 1016, N—((R)-1-(4-amino-7-(4-methyl-5-oxo-2,5-dihydrofuran-3-yl)pyrrolo[2,1-f][1,2,4]triazin-5-yl)piperidin-3-yl)-4-(((1S,4S)-4-(dimethylamino)cyclohexyl)oxy)-2-(methyl-d3)thiazole-5-carboxamide], the IC50 was 1 nM. Work on `CC1=C(c2cc(N3CCC[C@@H](NC(=O)c4sc(C)nc4OC4CCC(N(C)C)CC4)C3)c3c(N)ncnn23)COC1=O` (stereo partly drawn) [Example 1017, N—((R)-1-(4-amino-7-(4-methyl-5-oxo-2,5-dihydrofuran-3-yl)pyrrolo[2,1-f][1,2,4]triazin-5-yl)piperidin-3-yl)-4-(((1S,4S)-4-(dimethylamino)cyclohexyl)oxy)-2-(methyl-d3)thiazole-5-carboxamide] yielded an IC50 of 1.6 nM. With `CCC1=C(c2cc(N3CCC[C@@H](NC(=O)c4sc(C)nc4O[C@H]4CC[C@@H](N(C)C)CC4)C3)c3c(N)ncnn23)COC1=O` [Example 1018, N—((R)-1-(4-amino-7-(4-ethyl-5-oxo-2,5-dihydrofuran-3-yl)pyrrolo[2,1-f][1,2,4]triazin-5-yl)piperidin-3-yl)-4-(((1S,4S)-4-(dimethylamino)cyclohexyl)oxy)-2-methylthiazole-5-carboxamide] the IC50 was 0.8 nM. `CCC1=C(c2cc(N3CCC[C@@H](NC(=O)c4sc(C)nc4OC4CCC(NC5CC5)CC4)C3)c3c(N)ncnn23)COC1=O` (stereo partly drawn) [Example 1022, (R)-N-(1-(4-amino-7-(4-ethyl-5-oxo-2,5-dihydrofuran-3-yl)pyrrolo[2,1-f][1,2,4]triazin-5-yl)piperidin-3-y1)-4-((4-(cyclopropylamino)cyclohexyl)oxy)-2-methylthiazole-5-carboxamide] gave an IC50 of 1.3 nM. With `Cc1nc(OC2CCC(NC(C)(C)C)CC2)c(C(=O)N[C@@H]2CCCN(c3cc(-c4ccc(S(C)(=O)=O)cn4)n4ncnc(N)c34)C2)s1` (stereo partly drawn) [Example 1026, (R)—N-(1-(4-amino-7-(5-(methylsulfonyl)pyridin-2-yl)pyrrolo[2,1-f][1,2,4]triazin-5-yl)piperidin-3-yl)-4-((4-(tert-butylamino)cyclohexyl)oxy)-2-methylthiazole-5-carboxamide] the IC50 was 2.2 nM. With `COc1nccc(-c2cc(N3CCC[C@@H](NC(=O)c4sc(C)nc4O[C@H]4CC[C@@H](N(C)C)CC4)C3)c3c(N)ncnn23)n1` [Example 1028, N—((R)-1-(4-amino-7-(2-methoxypyrimidin-4-yl)pyrrolo[2,1-f][1,2,4]triazin-5-yl)piperidin-3-yl)-4-(((1S,4S)-4-(dimethylamino)cyclohexyl)oxy)-2-methylthiazole-5-carboxamide] the IC50 was 1.7 nM. Work on `COc1nccc(-c2cc(N3CCC[C@@H](NC(=O)c4sc(C)nc4O[C@H]4CC[C@@H](N5CCCC5)CC4)C3)c3c(N)ncnn23)n1` [Example 1029, N—((R)-1-(4-amino-7-(2-methoxypyrimidin-4-yl)pyrrolo[2,1-f][1,2,4]triazin-5-yl)piperidin-3-yl)-2-methyl-4-(((1s,4S)-4-(pyrrolidin-1-yl)cyclohexyl)oxy)thiazole-S-carboxamidemorpholinothiophene-2-carboxamide] yielded an IC50 of 0.1 nM. With `CCC(C)(C)N[C@H]1CC[C@@H](Oc2nc(C)sc2C(=O)N[C@@H]2CCCN(c3cc(-c4ccnc(OC)n4)n4ncnc(N)c34)C2)CC1` [Example 1030, (R)—N-(1-(4-amino-7-(2-methoxypyrimidin-4-yl)pyrrolo[2,1-f][1,2,4]triazin-5-yl)piperidin-3-yl)-2-methyl-4-((4-(tert-pentylamino)cyclohexyl)oxy)thiazole-5-carboxamide] the IC50 was 0.9 nM. `[2H]C([2H])([2H])N(C1CCC(Oc2nc(C)sc2C(=O)N[C@@H]2CCCN(c3cc(-c4ccnc(OC)n4)n4ncnc(N)c34)C2)CC1)C([2H])([2H])[2H]` (stereo partly drawn) [Example 1031, (R)—N-(1-(4-amino-7-(2-methoxypyrimidin-4-yl)pyrrolo[2,1-f][1,2,4]triazin-5-yl)piperidin-3-yl)-4-((4-(bis(methyl-d3)amino)cyclohexyl)oxy)-2-methylthiazole-5-carboxamide] gave an IC50 of 1.1 nM. Molecule `[2H]C([2H])([2H])N(C1CCC(Oc2nc(C)sc2C(=O)N[C@@H]2CCCN(c3cc(-c4ccnc(OC)n4)n4ncnc(N)c34)C2)CC1)C([2H])([2H])[2H]` (stereo partly drawn) [Example 1032, (R)—N-(1-(4-amino-7-(2-methoxypyrimidin-4-yl)pyrrolo[2,1-f][1,2,4]triazin-5-yl)piperidin-3-yl)-4-((4-(bis(methyl-d3)amino)cyclohexyl)oxy)-2-methylthiazole-5-carboxamide] has an IC50 of 1.2 nM. For `[2H]C([2H])([2H])Oc1nccc(-c2cc(N3CCC[C@@H](NC(=O)c4sc(C)nc4O[C@H]4CC[C@@H](N(C)C)CC4)C3)c3c(N)ncnn23)n1` [Example 1033, N—((R)-1-(4-amino-7-(2-(methoxy-d3)pyrimidin-4-yl)pyrrolo[2,1-f][1,2,4]triazin-5-yl)piperidin-3-yl)-4-(((1S,4S)-4-(dimethylamino)cyclohexyl)oxy)-2-methylthiazole-5-carboxamide], the IC50 was 1 nM. `Cc1nccc(-c2cc(N3CCC[C@@H](NC(=O)c4sc(C)nc4O[C@H]4CC[C@@H](N(C)C)CC4)C3)c3c(N)ncnn23)n1` [Example 1035, N—((R)-1-(4-amino-7-(2-methylpyrimidin-4-yl)pyrrolo[2,1-f][1,2,4]triazin-5-yl)piperidin-3-yl)-4-(((1S,4S)-4-(dimethylamino)cyclohexyl)oxy)-2-methylthiazole-5-carboxamide] was tested, and the IC50 was 0.8 nM. Molecule `Cc1nccc(-c2cc(N3CCC[C@@H](NC(=O)c4sc(C)nc4O[C@H]4CC[C@@H](NC(C)C)CC4)C3)c3c(N)ncnn23)n1` [Example 1036, N—((R)-1-(4-amino-7-(2-methylpyrimidin-4-yl)pyrrolo[2,1-f][1,2,4]triazin-5-yl)piperidin-3-yl)-4-(((1S,4S)-4 (isopropylamino)cyclohexyl)oxy)-2-methylthiazole-5-carboxamide] has an IC50 of 0.1 nM. `Cc1nccc(-c2cc(N3CCC[C@@H](NC(=O)c4sc(C)nc4OC4CCC(N5CCC5)CC4)C3)c3c(N)ncnn23)n1` (stereo partly drawn) [Example 1037, N—((R)-1-(4-amino-7-(2-methylpyrimidin-4-yl)pyrrolo[2,1-f][1,2,4]triazin-5-yl)piperidin-3-yl)-4-(((1S,4S)-4-(azetidin-1-yl)cyclohexyl)oxy)-2-methylthiazole-5-carboxamide] gave an IC50 of 1.2 nM. With `COc1cc(-c2cc(N3CCC[C@@H](NC(=O)c4sc(C)nc4OC4CCC(N5CCC5)CC4)C3)c3c(N)ncnn23)ccn1` (some centres unmarked) [Example 1038] the IC50 was 0.9 nM. `Cc1nc(OC2CCC(N3CC(O)C3)CC2)c(C(=O)N[C@@H]2CCCN(c3cc(-c4ccc(C(N)=O)c(F)c4)n4ncnc(N)c34)C2)s1` (stereo partly drawn) [Example 1039, (R)—N-(1-(4-amino-7-(4-carbamoyl-3-fluorophenyl)pyrrolo[2,1-f][1,2,4]triazin-5-yl)piperidin-3-yl)-4-((4-(3-hydroxyazetidin-1-yl)cyclohexyl)oxy)-2-methylthiazole-5-carboxamide] showed an IC50 of 0.9 nM. `COC[C@@H](C)NC1CCC(Oc2nc(C)sc2C(=O)N[C@@H]2CCCN(c3cc(-c4ccc(C(N)=O)c(F)n4)n4ncnc(N)c34)C2)CC1` (some centres unmarked) [Example 1040] showed an IC50 of 1.7 nM. With `Cc1nc(OC2CCC(N3CCC3)CC2)c(C(=O)N[C@@H]2CCCN(c3cc(-c4ccc(C(N)=O)c(F)n4)n4ncnc(N)c34)C2)s1` (stereo partly drawn) [Example 1041, (R)—N-(1-(4-amino-7-(5-carbamoyl-6-fluoropyridin-2-yl)pyrrolo[2,1-f][1,2,4]triazin-5-yl)piperidin-3-yl)-4-((4-(azetidin-1-yl)cyclohexyl)oxy)-2-methylthiazole-5-carboxamide] the IC50 was 1.7 nM. In the case of `COc1nc(-c2cc(N3CCC[C@@H](NC(=O)c4sc(C)nc4OC4CCC(N5CCC[C@@H]5C)CC4)C3)c3c(N)ncnn23)ccc1C(N)=O` (stereo partly drawn) [Example 1043, N—((R)-1-(4-amino-7-(5-carbamoyl-6-methoxypyridin-2-yl)pyrrolo[2,1-f] [1,2,4]triazin-5-yl)piperidin-3-yl)-2-methyl-4-((4-((S)-2-methylpyrrolidin-1-yl)cyclohexyl)oxy) thiazole-5-carboxamide], the IC50 is reported as 2.1 nM. Molecule `COc1nc(-c2cc(N3CCC[C@@H](NC(=O)c4sc(C)nc4OC4CCC(N5CCC[C@H]5C)CC4)C3)c3c(N)ncnn23)ccc1C(N)=O` (stereo partly drawn) [Example 1044, N—((R)-1-(4-amino-7-(5-carbamoyl-6-methoxypyridin-2-yl)pyrrolo[2,1-f][1,2,4]triazin-5-yl)piperidin-3-yl)-2-methyl-4-((4-((R)-2-methylpyrrolidin-1-yl)cyclohexyl)oxy)thiazole-5-carboxamide] has an IC50 of 2.8 nM. `COc1nc(-c2cc(N3CCC[C@@H](NC(=O)c4sc(C)nc4OC4CCC(N5CCC5)CC4)C3)c3c(N)ncnn23)ccc1C(N)=O` (stereo partly drawn) [Example 1045, (R)—N-(1-(4-amino-7-(5-carbamoyl-6-methoxypyridin-2-yl)pyrrolo[2,1-f][1,2,4]triazin-5-yl)piperidin-3-yl)-4-((4-(azetidin-1-yl)cyclohexyl)oxy)-2-methylthiazole-5-carboxamide] showed an IC50 of 0.5 nM. In the case of `Cc1cc(-c2cc(N3CCC[C@@H](NC(=O)c4sc(C)nc4O[C@H]4CC[C@@H](N(C)C)CC4)C3)c3c(N)ncnn23)cnn1` [Example 1046], the IC50 is reported as 16 nM.
